In PubChem BioAssay (NCI):
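Tested at 5 concentrations; 48 h exposure; 96-well plates; endpoints linearly interpolated, else capped at highest concentration. At the TGI there is no net growth.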

Columns and labels:
Experiment in all cases: NCI-60 cell line screen, 48 h
SNB-78 CNS = test system: SNB-78 CNS
HCT-15 colon = test system: HCT-15 colon
786-0 renal = test system: 786-0 renal
KM20L2 colon = test system: KM20L2 colon
OVCAR-8 ovarian = test system: OVCAR-8 ovarian
HCT-116 colon = test system: HCT-116 colon
LXFL 529 NSCLC = test system: LXFL 529 NSCLC
COLO 205 colon = test system: COLO 205 colon
OVCAR-5 ovarian = test system: OVCAR-5 ovarian
U251 CNS = test system: U251 CNS
LOX IMVI melanoma = test system: LOX IMVI melanoma
SK-MEL-5 melanoma = test system: SK-MEL-5 melanoma
DMS 114 small cell lung = test system: DMS 114 small cell lung
NCI-H23 lung = test system: NCI-H23 lung
SF-295 CNS = test system: SF-295 CNS
SK-MEL-28 melanoma = test system: SK-MEL-28 melanoma
SF-268 CNS = test system: SF-268 CNS
UO-31 renal = test system: UO-31 renal
ACHN renal = test system: ACHN renal
XF 498 CNS = test system: XF 498 CNS
NCI-H460 lung = test system: NCI-H460 lung
UACC-257 melanoma = test system: UACC-257 melanoma
HOP-18 NSCLC = test system: HOP-18 NSCLC
SNB-75 CNS = test system: SNB-75 CNS
RXF-631 renal = test system: RXF-631 renal
TK-10 renal = test system: TK-10 renal
SW-620 colon = test system: SW-620 colon
SK-OV-3 ovarian = test system: SK-OV-3 ovarian
SNB-19 CNS = test system: SNB-19 CNS
UACC-62 melanoma = test system: UACC-62 melanoma
A549 NSCLC = test system: A549 NSCLC
CAKI-1 renal = test system: CAKI-1 renal
RXF 393 renal = test system: RXF 393 renal
OVCAR-4 ovarian = test system: OVCAR-4 ovarian
NCI-H226 lung = test system: NCI-H226 lung
NCI-H522 lung = test system: NCI-H522 lung
M19-MEL melanoma = test system: M19-MEL melanoma
HCC-2998 colon = test system: HCC-2998 colon
KM12 colon = test system: KM12 colon
EKVX NSCLC = test system: EKVX NSCLC
HT29 colon = test system: HT29 colon
A498 renal = test system: A498 renal
SK-MEL-2 melanoma = test system: SK-MEL-2 melanoma
HL-60(TB) leukemia = test system: HL-60(TB) leukemia
K-562 leukemia = test system: K-562 leukemia
M14 melanoma = test system: M14 melanoma
HOP-62 NSCLC = test system: HOP-62 NSCLC
SF-539 CNS = test system: SF-539 CNS
DMS 273 small cell lung = test system: DMS 273 small cell lung
CCRF-CEM leukemia = test system: CCRF-CEM leukemia
SN12C renal = test system: SN12C renal
IGROV1 ovarian = test system: IGROV1 ovarian
DLD-1 colon = test system: DLD-1 colon
HOP-92 NSCLC = test system: HOP-92 NSCLC
MALME-3M melanoma = test system: MALME-3M melanoma
MOLT-4 leukemia = test system: MOLT-4 leukemia
OVCAR-3 ovarian = test system: OVCAR-3 ovarian
RPMI-8226 leukemia = test system: RPMI-8226 leukemia

## CC(=O)O[C@H]1CC[C@@]2(C)C(=CC[C@@H]3C2CC[C@]2(C)C(=O)NC(=O)CC32)C1 (stereo not given in full)
SNB-78 CNS
  TGI: > 100 µM
HCT-15 colon
  TGI: > 100 µM
786-0 renal
  TGI: > 100 µM
KM20L2 colon
  TGI: > 100 µM
OVCAR-8 ovarian
  TGI: > 100 µM
HCT-116 colon
  TGI: > 100 µM
LXFL 529 NSCLC
  TGI: > 100 µM
COLO 205 colon
  TGI: > 100 µM
OVCAR-5 ovarian
  TGI: > 100 µM
U251 CNS
  TGI: > 100 µM
LOX IMVI melanoma
  TGI: > 100 µM
SK-MEL-5 melanoma
  TGI: > 100 µM
DMS 114 small cell lung
  TGI: > 100 µM
NCI-H23 lung
  TGI: > 100 µM
SF-295 CNS
  TGI: > 100 µM
SK-MEL-28 melanoma
  TGI: > 100 µM
SF-268 CNS
  TGI: > 100 µM
UO-31 renal
  TGI: > 100 µM
ACHN renal
  TGI: > 100 µM
XF 498 CNS
  TGI: > 100 µM
NCI-H460 lung
  TGI: > 100 µM
UACC-257 melanoma
  TGI: > 100 µM
HOP-18 NSCLC
  TGI: > 100 µM
SNB-75 CNS
  TGI: > 100 µM
RXF-631 renal
  TGI: > 100 µM
TK-10 renal
  TGI: > 100 µM
SW-620 colon
  TGI: > 100 µM
SK-OV-3 ovarian
  TGI: > 100 µM
SNB-19 CNS
  TGI: > 100 µM
UACC-62 melanoma
  TGI: > 100 µM
A549 NSCLC
  TGI: > 100 µM
CAKI-1 renal
  TGI: > 100 µM
RXF 393 renal
  TGI: 84.1 µM
OVCAR-4 ovarian
  TGI: > 100 µM
NCI-H226 lung
  TGI: > 100 µM
NCI-H522 lung
  TGI: 86.2 µM
M19-MEL melanoma
  TGI: > 100 µM
HCC-2998 colon
  TGI: > 100 µM
KM12 colon
  TGI: > 100 µM
EKVX NSCLC
  TGI: > 100 µM
HT29 colon
  TGI: > 100 µM
A498 renal
  TGI: > 100 µM
SK-MEL-2 melanoma
  TGI: > 100 µM
HL-60(TB) leukemia
  TGI: > 100 µM
K-562 leukemia
  TGI: > 100 µM
M14 melanoma
  TGI: > 100 µM
HOP-62 NSCLC
  TGI: > 100 µM
SF-539 CNS
  TGI: > 100 µM
DMS 273 small cell lung
  TGI: > 100 µM
CCRF-CEM leukemia
  TGI: > 100 µM
SN12C renal
  TGI: > 100 µM
IGROV1 ovarian
  TGI: > 100 µM
DLD-1 colon
  TGI: > 100 µM
HOP-92 NSCLC
  TGI: > 100 µM
MALME-3M melanoma
  TGI: > 100 µM
MOLT-4 leukemia
  TGI: > 100 µM

## Cc1ccc2oc(=O)cc(CC(=O)O)c2c1
HCT-15 colon
  TGI: > 100 µM
786-0 renal
  TGI: > 100 µM
KM20L2 colon
  TGI: > 100 µM
OVCAR-8 ovarian
  TGI: > 100 µM
HCT-116 colon
  TGI: > 100 µM
OVCAR-3 ovarian
  TGI: > 100 µM
LXFL 529 NSCLC
  TGI: > 100 µM
COLO 205 colon
  TGI: > 100 µM
OVCAR-5 ovarian
  TGI: > 100 µM
U251 CNS
  TGI: > 100 µM
LOX IMVI melanoma
  TGI: > 100 µM
SK-MEL-5 melanoma
  TGI: > 100 µM
NCI-H23 lung
  TGI: > 100 µM
SF-295 CNS
  TGI: > 100 µM
SK-MEL-28 melanoma
  TGI: > 100 µM
SF-268 CNS
  TGI: > 100 µM
ACHN renal
  TGI: > 100 µM
XF 498 CNS
  TGI: 93.1 µM
NCI-H460 lung
  TGI: > 100 µM
HOP-18 NSCLC
  TGI: > 100 µM
SNB-75 CNS
  TGI: > 100 µM
RXF-631 renal
  TGI: > 100 µM
TK-10 renal
  TGI: > 100 µM
SW-620 colon
  TGI: > 100 µM
SK-OV-3 ovarian
  TGI: > 100 µM
SNB-19 CNS
  TGI: > 100 µM
UACC-62 melanoma
  TGI: > 100 µM
A549 NSCLC
  TGI: > 100 µM
CAKI-1 renal
  TGI: > 100 µM
RPMI-8226 leukemia
  TGI: > 100 µM
RXF 393 renal
  TGI: > 100 µM
OVCAR-4 ovarian
  TGI: > 100 µM
NCI-H226 lung
  TGI: > 100 µM
NCI-H522 lung
  TGI: > 100 µM
M19-MEL melanoma
  TGI: > 100 µM
HCC-2998 colon
  TGI: > 100 µM
KM12 colon
  TGI: > 100 µM
EKVX NSCLC
  TGI: > 100 µM
HT29 colon
  TGI: > 100 µM
A498 renal
  TGI: > 100 µM
SK-MEL-2 melanoma
  TGI: > 100 µM
HL-60(TB) leukemia
  TGI: > 100 µM
K-562 leukemia
  TGI: > 100 µM
M14 melanoma
  TGI: > 100 µM
HOP-62 NSCLC
  TGI: > 100 µM
SF-539 CNS
  TGI: > 100 µM
DMS 273 small cell lung
  TGI: > 100 µM
CCRF-CEM leukemia
  TGI: > 100 µM
SN12C renal
  TGI: > 100 µM
IGROV1 ovarian
  TGI: > 100 µM
DLD-1 colon
  TGI: > 100 µM
HOP-92 NSCLC
  TGI: > 100 µM
MALME-3M melanoma
  TGI: > 100 µM
MOLT-4 leukemia
  TGI: > 100 µM
